Assay results from patent US20140213576A1, “NOVEL COMPOUND USEFUL FOR THE TREATMENT OF DEGENERATIVE AND INFLAMMATORY DISEASES” (GALAPAGOS NV, priority 2013, published 2014).

Tests used:
[1] = test system: BA/F3 (ATCC CRL-12015); test: BA/F3 viability assay; type: cell-based, murine; settings: IL3-dependent viability, ATP-lite, individual determinations
Text: The protocol describes the methods to analyse the activity of compounds on the ability to sustain the IL3-dependent viability of BA/F3 (ATCC CRL-12015; Collins et al, 1992).

[2] = test system: IL-6-induced STAT1 phosphorylation; test: Whole blood assay, IL-6 stimulation, phospho-STAT1 by FACS; type: cell-based; settings: human whole blood, CD4+ cells, 9 different donors
Description: In addition, a flow cytometry analysis was performed to establish JAK1 over JAK2 compound selectivity ex vivo using human whole blood. Therefore, blood was taken from human volunteers who gave informed consent. Blood was then equilibrated for 30 min at 37° C. under gentle rocking, then aliquoted in Eppendorf tubes. Compound was added at different concentrations and incubated at 37° C. for 30 min under gentle rocking and subsequently stimulated for 20 min at 37° C. under gentle rocking with interleukin 6 (IL-6) for JAK1-dependent pathway stimulation or GM-CSF for JAK2-dependent pathway stimulation. Phospho-STAT1 and phospho-STAT5 were then evaluated using FACS analysis.
For IL-6-stimulated increase of Signal Transducers and Activators of Transcription 1 (pSTAT1) phosphorylation in white blood cell, human whole blood, drawn from human volunteers who gave informed consent, was ex vivo treated with the compound for 30 min and subsequently stimulated for 20 min with IL-6. The increase in phosphorylation of STAT1 by IL-6 in lymphocytes was measured using anti phospho-STAT1 antibody by FACS. […]
Cells are then washed once with 1×PBS and analyzed on a FACSCanto II flow cytometer (BD Biosciences).
50,000 total events were counted and Phospho-STAT1 positive cells were measured after gating on CD4+ cells, in the lymphocyte gate. […]

CCc1cc(C2CN(S(C)(=O)=O)C2)ncc1N(C)c1cc2c(cn1)ncn2C [Compound 1, [4-Ethyl-6-(1-methanesulfonyl-azetidin-3-yl)-pyridin-3-yl]-methyl-(1-methyl-1H-imidazo[4,5-d]pyridin-6-yl)-amine]
IC50 ([1]; 48 h, listed as compound of the invention): 8.02 µM
IC50 ([1]; Mus musculus, BaF3, 48 h): > 11.1 µM
IC50 [2]: 498 nM
